Values after ≈ are worked out from the molar mass of the structure shown. Read-outs that look alike come from different tables or passages of the source.
Tests used:
[1] = tested on: HuCCA-1 (cholangiocarcinoma); experiment: Cytotoxicity, MTT assay, HuCCA-1; assay type: cell-based, human; details: for IC50: Homo sapiens
Experimental: (§1) The in vitro cytotoxicity assay toward a panel of human cancer cell lines of several clerodane diterpenoids has been well investigated. Thus, the isolates in adequate amounts were tested against MOLT-3 (acute lymphoblastic leukemia), HuCCA-1 (cholangiocarcinoma), HepG2 (hepatocellular carcinoma), A549 (lung adenocarcinoma), HeLa (cervical carcinoma), and MDA-MB-231 (triple negative breast cancer) cancer cell lines using the MTT and XTT methods. Doxorubicin and etoposide were used as positive controls.
(§2) The MTT (3-(4,5-dimethylthiazol-2-yl)-2,5-diphenyltetrazolium bromide) assay was employed for the cytotoxic evaluation against five human cancer cell lines, including HepG2, A549, MDA-MB-231, HeLa, and HuCCA-1, while the XTT (2,3-bis-(2-methoxy-4-nitro-5-sulphenyl)-(2H)-tetrazolium-5-carboxanilide) method was used for MOLT-3 cancer cell.

[2] = tested on: Staphylococcus epidermidis (ATCC 12228); experiment: Antibacterial broth microdilution (MIC/MBC), S. epidermidis; assay type: cell-based; details: ATCC12228
Experimental: (§3) In addition, the isolates were also evaluated for their antibacterial activity towards three strains including Bacillus cereus (ATCC 11778), Staphylococcus aureus (ATCC 6538) and Staphylococcus epidermidis (ATCC 12228) using penicillin G and gentamicin as the antibiotic controls (Table 5). […] Finally, the inhibitory activity of aromatase by using a CYP19 screening kit was investigated. The aromatase (also called estrogen synthase) is responsible for converting the non-aromatic ring A of androgens to estrogens, which are related to the proliferation of breast cancer cells.
(§4) The tested strains, Staphylococcus aureus (S. aureus) ATCC6538, Staphylococcus epidermidis (S. epidermidis) ATCC12228, and Bacillus cereus (B. cereus) ATCC11778 were obtained from the American Type Culture Collection (ATCC).
(§5) All tested species were grown on Mueller Hinton Agar (MHA) and incubated at 37 °C for 18–24 h. The bacterial colonies suspension in sterile normal saline was diluted until they reached a 1 × 10^6 CFC/mL concentration, which was then compared to the McFarland scale. This step provided a standard bacterial suspension (1 × 10^6 CFU/mL), which was used for the following assays.
(§6) The broth microdilution technique was used for the MIC and MBC determination, which was expressed according to Clinical and Laboratory Standards Institute (CLSI) standard M07 guideline. The compounds were prepared as a stock solution by dissolving in dimethyl sulfoxide (DMSO) with the concentration ranging from 0.195 to 200 µg/mL. DMSO and penicillin G or gentamicin were used as normal and standard drug control. […] Three replicates were performed for each experiment.

[3] = tested on: MDA-MB-231 (triple negative breast cancer); experiment: Cytotoxicity, MTT assay, MDA-MB-231; assay type: cell-based, human
Experimental: as §1, §2

[4] = tested on: HeLa (cervical carcinoma); experiment: Cytotoxicity, MTT assay, HeLa; assay type: cell-based, human; details: for IC50: Homo sapiens, HeLa, read-out: IC50, HeLa
Experimental: as §1, §2

[5] = tested on: MOLT-3, HuCCA-1, HepG2, A549, HeLa, and MDA-MB-231 cancer cell lines; experiment: Cytotoxicity toward panel of human cancer cell lines (MTT and XTT); assay type: cell-based; details: for IC50: Homo sapiens, read-out: IC50 range over the cancer cell line panel
Excerpt: The in vitro cytotoxicity assay toward a panel of human cancer cell lines of several clerodane diterpenoids has been well investigated. […] Doxorubicin and etoposide were used as positive controls.

aromatase (CYP19) = biological target: T1, aromatase (CYP19) (Homo sapiens, UniProt P11511); experiment: Aromatase (CYP19) inhibition assay; assay type: biochemical; details: for inhibition at 12.5 µM: at a concentration of 12.5 µM; for Aromatase inhibitory activity (in words): at the concentration up to 12.15 µM
T1 construct: purchased
T1 sequence (P11511 1-503): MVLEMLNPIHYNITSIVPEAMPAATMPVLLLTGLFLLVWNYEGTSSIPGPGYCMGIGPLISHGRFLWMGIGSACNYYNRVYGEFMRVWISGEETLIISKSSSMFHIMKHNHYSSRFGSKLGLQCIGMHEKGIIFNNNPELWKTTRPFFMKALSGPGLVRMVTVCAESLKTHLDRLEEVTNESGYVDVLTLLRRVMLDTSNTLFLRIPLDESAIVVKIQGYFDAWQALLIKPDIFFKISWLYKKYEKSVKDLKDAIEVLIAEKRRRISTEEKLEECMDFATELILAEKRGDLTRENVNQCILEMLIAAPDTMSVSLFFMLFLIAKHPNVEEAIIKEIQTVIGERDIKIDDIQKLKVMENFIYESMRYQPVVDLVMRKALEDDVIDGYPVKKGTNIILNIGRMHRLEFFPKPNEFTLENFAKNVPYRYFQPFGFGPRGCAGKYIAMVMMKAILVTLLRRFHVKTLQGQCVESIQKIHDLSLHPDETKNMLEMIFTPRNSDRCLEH
Experimental: as §3
The aromatase assay used a method previously designed by Stresser and co-workers.

[6] = tested on: Bacillus cereus (ATCC 11778); experiment: Antibacterial broth microdilution (MIC/MBC), B. cereus; assay type: cell-based; details: for MBC / MIC: Bacillus cereus, ATCC11778
Experimental: as §3, §4, §5, §6

[7] = tested on: A549 (lung adenocarcinoma); experiment: Cytotoxicity, MTT assay, A549; assay type: cell-based, human; details: mean ± s.d. (n = 3); for IC50: Homo sapiens, A549, A549 cell line
Experimental: as §1, §2

[8] = tested on: Staphylococcus aureus (ATCC 6538); experiment: Antibacterial broth microdilution (MIC/MBC), S. aureus; assay type: cell-based; details: ATCC6538
Experimental: as §3, §4, §5, §6

[9] = tested on: MOLT-3 (acute lymphoblastic leukemia); experiment: Cytotoxicity, XTT method, MOLT-3; assay type: cell-based; details: Homo sapiens
Experimental: as §1, §2

[10] = tested on: HepG2 (hepatocellular carcinoma); experiment: Cytotoxicity, MTT assay, HepG2; assay type: cell-based, human; details: for IC50: Homo sapiens
Experimental: as §1, §2

[11] = HuCC-A1, HuCCA-1 cell line, MTT, mean ± s.d. (n = 3), read-out: IC50, HuCCA-1
[12] = Homo sapiens, MDA-MB-231, MDA-MB-231 cell line, MTT, mean ± s.d. (n = 3), read-out: IC50, MDA-MB-231
[13] = MDA-MB-231 cell line, MTT, mean ± s.d. (n = 3), read-out: IC50, MDA-MB-231
[14] = HeLa cell line, MTT, mean ± s.d. (n = 3)
[15] = range over all cell lines tested
[16] = MOLT-3 cell line, XTT, mean ± s.d. (n = 3), read-out: IC50, MOLT-3
[17] = HepG2, HepG2 cell line, MTT, mean ± s.d. (n = 3), read-out: IC50, HepG2

MIC [2] [µg/mL] | inhibition at 12.5 µM (aromatase (CYP19)) [%] | Aromatase inhibitory activity (in words) (aromatase (CYP19)) | MIC [6] [µg/mL] | MIC [8] [µg/mL] | SMILES | IC50 [1, 11] [nM] | MBC [2] [µg/mL] | IC50 [3, 12] [nM] | IC50 [4, 14] [nM] | MBC [6] [µg/mL] | IC50 [7] [nM] | MBC [8] [µg/mL] | IC50 [9, 16] [nM] | IC50 [10, 17] [nM] | other results
> 200 | – | – | 25 (≈ 48.2 µM) | > 200 | C=CC(=C)CC[C@]1(C)[C@H](C)C[C@H](O)[C@@]23C(=C[C@H](OC(=O)CC(C)C)C[C@@H]12)[C@@H](OC(C)=O)O[C@H]3OC(C)=O [Compound 8, corymbulosin X] | 400 ± 100 | > 200 | 2000 to 2200 | 1800 ± 200 | 50 (≈ 96.4 µM) | 600 ± 100 | > 200 | 1200 ± 200 | 2400 ± 100 | IC50 [3, 13]: 2200 ± 100 nM; IC50 [5, 15]: 300 to 2900 nM
> 200 | 31 | did not show activity | 100 (≈ 188 µM) | > 200 | C=CC(=C)CC[C@]1(C)[C@H]2C[C@H](OC(=O)CC(C)C)C=C3[C@H](OC(C)=O)O[C@H](OC(C)=O)[C@@]32[C@H](OC)C[C@@H]1C [Compound 9, caseargrewiin A] | 5200 ± 400 | > 200 | 8100 ± 400 | 5200 ± 100 | 100 (≈ 188 µM) | 5000 ± 500 | > 200 | 3000 ± 200 | 9500 ± 800 | –
> 200 | 25 | did not show activity | 12.5 (≈ 24.8 µM) | > 200 | C=CC(=C)CC[C@]1(C)[C@H](C)C[C@H](OC)[C@@]23C(=C[C@H](OC(=O)[C@@H](C)CC)C[C@@H]12)[C@@H](OC)O[C@H]3OC(C)=O [Compound 11, balanspene F] | 3300 ± 400 | > 200 | 11400 ± 500 | 10300 ± 500 | 25 (≈ 49.5 µM) | 3000 ± 400 | > 200 | 5000 ± 1700 | 14300 ± 1500 | MBC, B. cereus (ATCC 11778) [6]: 25 µg/mL (≈ 49.5 µM)

Continued, compound first:

SMILES | MIC [2] [µg/mL] | inhibition at 12.5 µM (aromatase (CYP19)) [%] | Aromatase inhibitory activity (in words) (aromatase (CYP19)) | MIC [6] [µg/mL] | MIC [8] [µg/mL] | IC50 [1, 11] [nM] | MBC [2] [µg/mL] | IC50 [3, 12] [nM] | IC50 [4, 14] [nM] | MBC [6] [µg/mL] | IC50 [7] [nM] | MBC [8] [µg/mL] | IC50 [9, 16] [nM] | IC50 [10, 17] [nM] | other results
C=CC(=C)CC[C@]1(C)[C@H](C)C[C@H](O)[C@@]23C(=C[C@H](OC(=O)[C@@H](C)CC)C[C@@H]12)[C@@H](OC(C)=O)O[C@H]3OC(C)=O [Compound 7, isocaseamembrin E] | 100 (≈ 193 µM) | 0 | did not show activity | 6.25 (≈ 12.1 µM) | 25 (≈ 48.2 µM) | 700 ± 100 | > 200 | 2000 to 2200 | 900 ± 100 | > 200 | 300 ± 20 | 50 (≈ 96.4 µM) | 1400 ± 200 | 1900 ± 400 | IC50 [3, 13]: 2000 ± 200 nM; IC50 [5, 15]: 300 to 2900 nM
C=CC(C)=CCC1(C)C(C)CC(O)C23C(=CC(OC(=O)C(C)CC)CC12)C(OC(C)=O)OC3OC(C)=O (stereo not shown) [Compound 16, Grewiifopene I] | – | – | – | – | – | – | – | – | – | – | – | – | – | – | IC50 ([1]; HuCC-A1, read-out: IC50, HuCCA-1): 700 ± 20 nM; IC50 ([3]; Homo sapiens, MDA-MB-231, read-out: IC50, MDA-MB-231): 2000 ± 100 nM; IC50 [4]: 800 ± 100 nM; IC50 [5]: 300 to 2900 nM; IC50 ([9]; MOLT-3, read-out: IC50, MOLT-3): 1200 ± 200 nM; IC50 ([10]; HepG2, read-out: IC50, HepG2): 2900 nM
COc1cc([C@@H]2OC[C@@H]3[C@H]2CO[C@H]3c2cc(OC)c(O)c(OC)c2)cc(OC)c1O [Compound 19, (−)-syringaresinol] | > 200 | 17 | did not show activity | > 200 | > 200 | – | > 200 | – | – | > 200 | – | > 200 | 75300 ± 4900 | – | IC50, HuCCA-1 ([1]; HuCCA-1 cell line, MTT, mean ± s.d. (n = 3)): I (Inactive for cytotoxicity with < 50% inhibition at a concentration of 50 µg/mL); IC50, MDA-MB-231 ([3]; MDA-MB-231 cell line, MTT, mean ± s.d. (n = 3)): I (Inactive for cytotoxicity with < 50% inhibition at a concentration of 50 µg/mL); IC50, HeLa [4, 14]: I (Inactive for cytotoxicity with < 50% inhibition at a concentration of 50 µg/mL); Cytotoxicity against all cell lines (in words) ([5]; even at 50 µg/mL): inactive; IC50, A549 ([7]; A549 cell line): I (Inactive for cytotoxicity with < 50% inhibition at a concentration of 50 µg/mL); IC50, HepG2 ([10]; HepG2 cell line, MTT, mean ± s.d. (n = 3)): I (Inactive for cytotoxicity with < 50% inhibition at a concentration of 50 µg/mL)
COC1=CC(=O)C=C(OC)C1(O)CC(C)=O [Compound 20, 4-acetonyl-3,5-dimethoxy-p-quinol] | > 200 | 0 | did not show activity | > 200 | > 200 | 111000 ± 2200 | > 200 | 24400 ± 1200 | 132000 ± 3800 | > 200 | 125000 ± 4700 | > 200 | 10000 ± 3500 | 122000 ± 11300 | –

From PMC11401813, “Grewiifopenes A–K, bioactive clerodane diterpenoids from Casearia grewiifolia Vent” (Natural Products and Bioprospecting, 2024)
